In patent publication US20130096156A1 (priority 2010, published 2013):
Like-named read-outs stand apart in the source and are kept apart here.

What was measured:
Phytophthora infestans = test: whole plant or invertebrate; type: in vivo; conditions: in Solanum lycopersicum, foliar, read-out: inhibit fungal infestation (percent disease control compared to untreated)
Plasmopara viticola = Plasmopara viticola / grape / leaf disc preventative; type: in vivo; conditions: foliar, grape vine leaf disks, inoculated 1 day after application, assessed 6-8 days after application, read-out: inhibit fungal infestation (percent disease control compared to untreated)
Method: (§1) Leaf disks of various plant species (diameter 14 mm) are cut from plants grown in the greenhouse. The cut leaf disks are placed in multiwell plates (24-well format) onto water agar. Immediately after cutting the leaf disks are sprayed with a test solution.
(§2) Compounds to be tested are prepared as DMSO solutions (max. 10 mg/ml). Just before spraying the solutions are diluted to the appropriate concentrations with 0.025% Tween20. After drying, the leaf disks are inoculated with a spore suspension of the appropriate pathogenic fungus.
(§3) After an incubation time of 3-7 days after inoculation at defined conditions (temp, rH, light, etc.) according to the respective test system, the activity of the test compound is assessed as antifungal activity.
Grape vine leaf disks are placed on water agar in multiwell plates (24-well format) and sprayed with the formulated test compound diluted in water. The leaf disks are inoculated with a spore suspension of the fungus 1 day after application. The inoculated leaf disks are incubated at 19° C. and 80% rh under a light regime of 12 h light/12 h darkness in a climate cabinet and the activity of a compound is assessed as percent disease control compared to untreated when an appropriate level of disease damage appears in untreated check leaf disks (6-8 days after application).

[1] = tested on: Blumeria graminis f. sp. tritici (Erysiphe graminis f. sp. tritici); test: Blumeria graminis f. sp. tritici / wheat / leaf disc preventative (powdery mildew on wheat); type: in vivo; conditions: foliar, wheat leaf segments cv. Kanzler, inoculated 1 day after application, assessed 6-8 days after application, read-out: inhibit fungal infestation (percent disease control compared to untreated)
Method: as §1, §2, §3
Wheat leaf segments cv. Kanzler are placed on agar in a multiwell plate (24-well format) and sprayed with the formulated test compound diluted in water. The leaf disks are inoculated by shaking powdery mildew infected plants above the test plates 1 day after application. The inoculated leaf disks are incubated at 20° C. and 60% rh under a light regime of 24 h darkness followed by 12 h light/12 h darkness in a climate chamber and the activity of a compound is assessed as percent disease control compared to untreated when an appropriate level of disease damage appears on untreated check leaf segments (6-8 days after application).

[2] = tested on: Phaeosphaeria nodorum (Septoria nodorum); test: Phaeosphaeria nodorum (Septoria nodorum) / wheat / leaf disc preventative (glume blotch); type: in vivo; conditions: Parastagonospora nodorum, foliar, wheat leaf segments cv. Kanzler, inoculated 2 days after application, assessed 5-7 days after application, read-out: inhibit fungal infestation (percent disease control compared to untreated)
Method: as §1, §2, §3
Wheat leaf segments cv. Kanzler are placed on agar in a multiwell plate (24-well format) and sprayed with the formulated test compound diluted in water. The leaf disks are inoculated with a spore suspension of the fungus 2 days after application. The inoculated test leaf disks are incubated at 20° C. and 75% rh under a light regime of 12 h light/12 h darkness in a climate cabinet and the activity of a compound is assessed as percent disease control compared to untreated when an appropriate level of disease damage appears in untreated check leaf disks (5-7 days after application).

Pythium ultimum = Pythium ultimum / liquid culture (seedling damping off); type: cell-based; conditions: Globisporangium ultimum, liquid culture in PDB, 24° C., 2-3 days after application, read-out: inhibit fungal infestation (inhibition of growth determined photometrically)
Method: Mycelia fragments or conidia suspensions of a fungus, prepared either freshly from liquid cultures of the fungus or from cryogenic storage, are directly mixed into nutrient broth. DMSO solutions of the test compound (max. 10 mg/ml) is diluted with 0.025% Tween20 by factor 50 and 10 μl of this solution is pipetted into a microtiter plate (96-well format) and the nutrient broth containing the fungal spores/mycelia fragments is then added to give an end concentration of the tested compound. The test plates are incubated at 24° C. and 96% rH in the dark. The inhibition of fungal growth is determined photometrically after 2-6 days and antifungal activity is calculated.
Mycelia fragments and oospores of a newly grown liquid culture of the fungus are directly mixed into nutrient broth (PDB potato dextrose broth). After placing a (DMSO) solution of test compound into a microtiter plate (96-well format), the nutrient broth containing the fungal mycelia/spore mixture is added. The test plates are incubated at 24° C. and the inhibition of growth is determined photometrically 2-3 days after application.

SMILES | inhibition at 200 ppm (Phytophthora infestans) [%] | inhibition at 200 ppm (Plasmopara viticola) [%] | inhibition at 200 ppm [1] [%] | inhibition at 200 ppm [2] [%] | inhibition at 200 ppm (Pythium ultimum) [%] | melting point [°C] | inhibition at 200 ppm ([1]; in Triticum aestivum) [%] | inhibition at 200 ppm ([2]; in Triticum aestivum) [%]
CCc1cnc2c(F)cc(OC(SC)C(=O)NC(C)(C)/C=N/OC)cc2c1 (stereo not drawn) [Compound 14, 2-(3-Ethyl-8-fluoro-quinolin-6-yloxy)-N-(2-methoxyimino-1,1-dimethyl-ethyl)-2-methylsulfanyl-acetamide] | ≥ 80 | ≥ 80 | ≥ 80 | ≥ 80 | ≥ 80 | 101 to 103 | – | –
CCc1cnc2c(C)cc(OC(SC)C(=O)NC(C)(C)/C=N/OC)cc2c1 (stereo not drawn) [Compound 16, 2-(3-Ethyl-8-methyl-quinolin-6-yloxy)-N-(2-methoxyimino-1,1-dimethyl-ethyl)-2-methylsulfanyl-acetamide] | ≥ 80 | ≥ 80 | ≥ 80 | ≥ 80 | ≥ 80 | 105 to 106 | – | –
C#CC(C)(C)NC(=O)C(Oc1cc(C)c2ncc(CC)cc2c1)SC (stereo not drawn) [Compound 18, N-(1,1-Dimethyl-prop-2-ynyl)-2-(3-ethyl-8-methyl-quinolin-6-yloxy)-2-methylsulfanyl-acetamide] | ≥ 80 | ≥ 80 | ≥ 80 | ≥ 80 | ≥ 80 | 92 to 93 | – | –
C#CC(C)(C)NC(=O)C(Oc1ccc2ncc(C=C)cc2c1)SC (stereo not drawn) [Compound 33, N-(1,1-Dimethyl-prop-2-ynyl)-2-methylsulfanyl-2-(3-vinyl-quinolin-6-yloxy)-acetamide] | ≥ 80 | ≥ 80 | ≥ 80 | ≥ 80 | ≥ 80 | 142 to 144 | – | –
C=Cc1cnc2ccc(OC(SC)C(=O)NC(C)(C)/C=N/OC)cc2c1 (stereo not drawn) [Compound 34, N-(2-Methoxyimino-1,1-dimethyl-ethyl)-2-methylsulfanyl-2-(3-vinyl-quinolin-6-yloxy)-acetamide] | ≥ 80 | ≥ 80 | ≥ 80 | ≥ 80 | ≥ 80 | 114 to 116 | – | –
C=Cc1cnc2c(C)cc(OC(SC)C(=O)NC(C)(C)/C=N/OC)cc2c1 (stereo not drawn) [Compound 35, N-(2-Methoxyimino-1,1-dimethyl-ethyl)-2-methylsulfanyl-2-(8-methyl-3-vinyl-quinolin-6-yloxy)-acetamide] | ≥ 80 | ≥ 80 | ≥ 80 | ≥ 80 | ≥ 80 | 87 to 89 | – | –
C#CC(C)(C)NC(=O)C(Oc1cc(C)c2ncc(C=C)cc2c1)SC (stereo not drawn) [Compound 36, N-(1,1-Dimethyl-prop-2-ynyl)-2-methylsulfanyl-2-(8-methyl-3-vinyl-quinolin-6-yloxy)-acetamide] | ≥ 80 | ≥ 80 | ≥ 80 | ≥ 80 | ≥ 80 | 115 to 117 | – | –
C=Cc1cnc2c(F)cc(OC(SC)C(=O)NC(C)(C)/C=N/OC)cc2c1 (stereo not drawn) [Compound 37] | ≥ 80 | ≥ 80 | – | – | ≥ 80 | 105 to 107 | ≥ 80 | ≥ 80
